Here are results for 19 compounds from ChEMBL document CHEMBL3886728, “Dihydrobenzoxazine and tetrahydroquinoxaline sodium channel inhibitors” (2016).

Assay [1] deals with T1, Sodium channel protein type 9 subunit alpha (Homo sapiens, UniProt Q15858). The assay is described as follows: In Vitro Assay: HEK 293 cells stably transfected with either Nav 1.7 or with Nav 1.5 were recorded in population patch-clamp mode with the IonWorks® Quattro automated electrophysiology system in accordance with the manufacturer's specifications (Molecular Devices, LLC, Sunnyvale, Calif.). Sodium channel currents were measured in response to a train of depolarizations that induced successively greater inactivation. Cells were held at −110 mV for three seconds (Nav 1.7) or half a second (Nav 1.5) from a holding voltage of −15 mV, then put through a series of 26 pulses of 150 msec duration to −20 mV at a frequency of 5 Hz. Cells were then left unclamped for a period of 3 to 8 minutes while a single concentration of test compound was added. Cells were then reclamped and put through the same voltage protocol. Current at the end of the 26th pulse to −20 mV was subtracted from the peak current evoked by the 26th pulse to −20 mV to correct for leak current. The format is cell-based. (Patch clamp records ionic current or voltage across a cell membrane.)
T1 sequence (Q15858 whole entry): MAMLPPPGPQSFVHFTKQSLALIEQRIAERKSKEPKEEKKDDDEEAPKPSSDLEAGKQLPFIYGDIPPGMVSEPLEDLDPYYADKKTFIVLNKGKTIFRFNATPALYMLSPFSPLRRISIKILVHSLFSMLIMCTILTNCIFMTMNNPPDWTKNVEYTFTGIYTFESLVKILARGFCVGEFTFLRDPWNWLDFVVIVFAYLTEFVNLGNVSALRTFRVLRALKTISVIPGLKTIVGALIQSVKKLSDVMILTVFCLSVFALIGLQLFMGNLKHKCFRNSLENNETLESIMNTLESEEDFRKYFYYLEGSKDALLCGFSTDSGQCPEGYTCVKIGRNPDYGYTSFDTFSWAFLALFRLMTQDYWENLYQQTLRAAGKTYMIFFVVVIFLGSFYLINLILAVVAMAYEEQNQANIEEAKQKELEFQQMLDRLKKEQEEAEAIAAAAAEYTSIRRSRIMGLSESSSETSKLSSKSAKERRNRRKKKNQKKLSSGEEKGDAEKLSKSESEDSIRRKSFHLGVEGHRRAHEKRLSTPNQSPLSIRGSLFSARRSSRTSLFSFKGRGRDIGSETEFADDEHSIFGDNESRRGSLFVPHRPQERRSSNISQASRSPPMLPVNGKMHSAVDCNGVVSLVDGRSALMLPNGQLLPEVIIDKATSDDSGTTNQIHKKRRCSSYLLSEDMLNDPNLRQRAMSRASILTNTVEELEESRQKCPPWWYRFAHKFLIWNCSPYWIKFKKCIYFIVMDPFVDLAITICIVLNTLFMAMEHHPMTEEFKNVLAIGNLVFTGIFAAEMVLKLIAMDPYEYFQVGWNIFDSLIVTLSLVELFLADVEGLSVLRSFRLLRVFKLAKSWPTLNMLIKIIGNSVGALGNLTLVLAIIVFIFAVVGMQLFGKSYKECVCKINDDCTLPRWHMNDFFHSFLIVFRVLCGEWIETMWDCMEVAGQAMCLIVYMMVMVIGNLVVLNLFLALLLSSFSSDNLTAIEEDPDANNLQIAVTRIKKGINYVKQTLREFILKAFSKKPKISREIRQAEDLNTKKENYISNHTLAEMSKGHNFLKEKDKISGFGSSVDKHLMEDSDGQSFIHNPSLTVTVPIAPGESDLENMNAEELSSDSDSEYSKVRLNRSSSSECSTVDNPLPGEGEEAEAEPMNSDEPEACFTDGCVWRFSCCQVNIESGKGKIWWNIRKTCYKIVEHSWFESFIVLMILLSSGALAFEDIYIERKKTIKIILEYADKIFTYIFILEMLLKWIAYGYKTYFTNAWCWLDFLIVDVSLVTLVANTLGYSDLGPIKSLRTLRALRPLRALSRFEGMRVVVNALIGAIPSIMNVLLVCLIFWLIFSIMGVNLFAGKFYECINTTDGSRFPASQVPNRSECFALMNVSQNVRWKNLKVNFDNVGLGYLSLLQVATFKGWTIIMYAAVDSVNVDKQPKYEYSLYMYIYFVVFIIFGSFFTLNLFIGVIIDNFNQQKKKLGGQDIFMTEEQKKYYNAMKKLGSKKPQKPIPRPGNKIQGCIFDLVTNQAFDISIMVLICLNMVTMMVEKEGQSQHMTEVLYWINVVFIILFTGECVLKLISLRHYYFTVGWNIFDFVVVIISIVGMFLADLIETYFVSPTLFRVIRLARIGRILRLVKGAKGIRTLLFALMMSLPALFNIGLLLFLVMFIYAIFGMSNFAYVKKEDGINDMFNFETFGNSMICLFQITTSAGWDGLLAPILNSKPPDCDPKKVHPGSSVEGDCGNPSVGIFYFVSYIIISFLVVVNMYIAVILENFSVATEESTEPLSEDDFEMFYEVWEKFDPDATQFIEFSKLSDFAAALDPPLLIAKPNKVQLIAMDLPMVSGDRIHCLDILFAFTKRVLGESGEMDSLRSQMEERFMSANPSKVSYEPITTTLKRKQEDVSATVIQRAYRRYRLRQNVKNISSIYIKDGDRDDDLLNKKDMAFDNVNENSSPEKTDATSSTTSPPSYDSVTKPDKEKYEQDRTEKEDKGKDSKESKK

Assay [2] concerns the target T1, Sodium channel protein type 9 subunit alpha. Put plainly: In Vitro PX Assay: HEK 293 cells stably transfected with human Nav1.7 were recorded in whole cell voltage clamp mode with the PatchXpress automated electrophysiology system (Molecular Devices, LLC, Sunnyvale, Calif.). Compound effects were measured on a partially inactivated state of the sodium channel. Cells were clamped to a holding potential yielding 20 to 50% inactivation. To elicit sodium current, channels were activated by pulsing to −10 mV for 20 msec. This voltage protocol was repeated at a rate of 0.1 Hz throughout the experiment. A single concentration of test compound was applied to cells for a duration of 3 minutes. The class given is cell-based.

With `CCOc1cccc(N2CCOc3cc(S(=O)(=O)Nc4nccs4)ccc32)c1`, the concentration for half-maximal inhibition (IC50) in assay [1] came to 742 nM; in assay [2] it was 2850 nM.
The corresponding values for `O=S(=O)(Nc1nccs1)c1ccc2c(c1)OCCN2c1ccccc1C(F)(F)F` are 1660 nM and 8020 nM.
The like results for `O=S(=O)(Nc1nccs1)c1ccc2c(c1)OCCN2c1ccc(F)cc1F` were, in that order, 191 nM and 1820 nM.
The like results for `O=S(=O)(Nc1nccs1)c1ccc2c(c1)OCCN2c1cccc(Cl)c1Cl` were, in that order, 274 nM and 961 nM.
Take `Cc1c(Cl)cccc1N1CCOc2cc(S(=O)(=O)Nc3nccs3)ccc21`: the results for the IC50 in assay [1] and in assay [2] were 601 nM and 416 nM, respectively.
In turn, `COc1cc(C#N)ccc1N1CCOc2cc(S(=O)(=O)Nc3ccncn3)ccc21` returned a half-maximal inhibitory concentration (IC50) in assay [2] of 910 nM.
Take `CN1CC=C(c2cc(C(F)(F)F)ccc2N2CCOc3cc(S(=O)(=O)Nc4ccncn4)ccc32)CC1`: the concentration for half-maximal inhibition (IC50) worked out at 4.5 nM in assay [1] and 364 nM in assay [2].
The like results for `O=C1CCCc2ccc(N3CCOc4cc(S(=O)(=O)Nc5nccs5)ccc43)cc21` were, in that order, 1100 nM and 7100 nM.
The corresponding values for `COc1ccc(N2CCOc3cc(S(=O)(=O)Nc4nccs4)ccc32)c(C#N)c1` are 2690 nM and 13800 nM.
The like results for `Cc1cc(N2CCOc3cc(S(=O)(=O)Nc4nccs4)ccc32)cc(C)c1N(C)C` were, in that order, 808 nM and 2370 nM.
Turning to `O=S(=O)(Nc1nccs1)c1ccc2c(c1)OCCN2c1ncc(Cl)cc1Cl`, the IC50 came out at 397 nM in assay [1] and 4500 nM in assay [2].
The corresponding values for `CC(C)(C)OC(=O)N1CC=C(c2cc(C(F)(F)F)ccc2N2CCOc3cc(S(=O)(=O)Nc4ncns4)ccc32)CC1` are 81.8 nM and 306 nM.
Turning to `Cc1ccc(N2CCOc3cc(S(=O)(=O)Nc4nccs4)ccc32)cc1F`, in assay [1], it took 7370 nM to reach half-maximal inhibition (IC50).
On to `Cc1ccc(N2CCOc3cc(S(=O)(=O)Nc4nccs4)ccc32)cc1Cl`, for which the concentration for half-maximal inhibition (IC50) in assay [1] turned out to be 733 nM; in assay [2], 1550 nM.
The corresponding values for `O=S(=O)(Nc1nccs1)c1ccc2c(c1)OCCN2c1cccc2scnc12` are 3760 nM and 5760 nM.
The corresponding values for `COc1cccc(N2CCOc3cc(S(=O)(=O)Nc4nccs4)ccc32)c1` are 141 nM and 2070 nM.
As for `O=S(=O)(Nc1nccs1)c1ccc2c(c1)OCCN2c1cc(F)ccc1F`, the 50% inhibitory concentration (IC50) in assay [1] turned out to be 114 nM; in assay [2], 1110 nM.
The corresponding values for `N#Cc1ccc(F)c(N2CCOc3cc(S(=O)(=O)Nc4nccs4)ccc32)c1` are 727 nM and 3190 nM.
The like results for `O=S(=O)(Nc1nccs1)c1ccc2c(c1)OCCN2c1ccc(-n2ccnc2)cc1` were, in that order, 2690 nM and 13700 nM.

As usually defined, the IC50 is the concentration at which inhibition is half-maximal. Read a low IC50 as greater potency in that assay.
